# Assay results from paper PMC11882969 (Nature Communications, 2025).
# Values joined by “and” are separate entries in the source; they are usually repeats but may differ in a detail not shown here. Equal entries are not always repeated.
# How the values were obtained:
# [1] = target: hCB2 (Homo sapiens, UniProt P34972); experiment: Tango β-arrestin-2 recruitment, HTLA cells, CB2R; assay type: cell-based; set-up: expressed in transfected cells; host or cells: HEK293 cells stably expressing human CB2R (Laboratory of Ken Mackie); conditions: hCB2
# hCB2, sequence (P34972 whole entry): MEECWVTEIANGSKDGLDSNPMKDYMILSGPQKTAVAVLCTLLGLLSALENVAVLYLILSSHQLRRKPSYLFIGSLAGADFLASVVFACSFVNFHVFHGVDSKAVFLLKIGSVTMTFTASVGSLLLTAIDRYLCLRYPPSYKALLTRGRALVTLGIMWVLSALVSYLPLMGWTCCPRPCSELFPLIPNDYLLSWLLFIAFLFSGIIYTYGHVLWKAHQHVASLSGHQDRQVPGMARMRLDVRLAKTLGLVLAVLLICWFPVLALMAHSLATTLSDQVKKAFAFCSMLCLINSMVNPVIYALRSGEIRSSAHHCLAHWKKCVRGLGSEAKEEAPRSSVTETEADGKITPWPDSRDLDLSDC
# Method: The Tango β-arrestin-2 recruitment assays were performed as described[83]. In brief, HTLA cells (a gift from the laboratory of R. Axel) were transiently transfected with human CB1R or CB2R Tango DNA construct overnight in DMEM supplemented with 10 % FBS, 100 µg ml−1 streptomycin and 100 U ml−1 penicillin. The transfected cells were then plated into poly-L-lysine-coated 384-well white clear-bottom cell culture plates in DMEM containing 1% dialysed FBS at a density of 10,000–15,000 cells per well. After incubation for 6 h, the plates were added with drug solutions prepared in DMEM containing 1% dialysed FBS for overnight incubation. On the day of assay, medium and drug solutions were removed and 20 µl per well of BrightGlo reagent (Promega) was added. The plates were further incubated for 20 min at room temperature and counted using the Wallac TriLux Microbeta counter (PerkinElmer). The results were analysed using GraphPad Prism 9. Each experiment was performed in triplicate and functional IC50 values were determined from the mean of three independent experiments.
# [2] = target: T1, CB1 (rCB1) (Rattus norvegicus, UniProt P20272); experiment: Single-point radioligand displacement screen; assay type: binding; conditions: 10 µM, 1 µM or 300 nM by cell colour (not visible)
# T1 sequence (P20272 whole entry): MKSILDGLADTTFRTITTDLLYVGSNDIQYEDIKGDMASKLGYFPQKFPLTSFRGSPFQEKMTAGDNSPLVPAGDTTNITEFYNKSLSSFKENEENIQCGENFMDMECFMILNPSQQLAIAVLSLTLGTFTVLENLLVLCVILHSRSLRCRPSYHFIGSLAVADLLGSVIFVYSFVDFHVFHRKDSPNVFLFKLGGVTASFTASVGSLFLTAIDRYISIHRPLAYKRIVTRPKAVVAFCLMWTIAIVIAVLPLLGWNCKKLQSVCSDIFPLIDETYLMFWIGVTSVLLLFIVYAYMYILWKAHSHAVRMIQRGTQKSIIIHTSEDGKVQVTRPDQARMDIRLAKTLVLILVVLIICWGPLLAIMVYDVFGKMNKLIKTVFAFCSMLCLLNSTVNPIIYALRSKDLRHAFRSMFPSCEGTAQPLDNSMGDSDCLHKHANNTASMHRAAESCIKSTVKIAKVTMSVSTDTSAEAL
# [3] = target: T2, hCB1 (Homo sapiens, UniProt P21554); experiment: Lance Ultra cAMP accumulation assay, CHO cells; assay type: cell-based; set-up: expressed in transfected cells; conditions: for normalised cAMP response, concentration-response (Figure2f), replicate values: log[Compound;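 on all read-outs here: human CB1R stably expressed in CHO cells, ligands co-incubated with forskolin at room temperature, read-out is lowering of forskolin-stimulated cAMP accumulation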
# T2 sequence (P21554 whole entry): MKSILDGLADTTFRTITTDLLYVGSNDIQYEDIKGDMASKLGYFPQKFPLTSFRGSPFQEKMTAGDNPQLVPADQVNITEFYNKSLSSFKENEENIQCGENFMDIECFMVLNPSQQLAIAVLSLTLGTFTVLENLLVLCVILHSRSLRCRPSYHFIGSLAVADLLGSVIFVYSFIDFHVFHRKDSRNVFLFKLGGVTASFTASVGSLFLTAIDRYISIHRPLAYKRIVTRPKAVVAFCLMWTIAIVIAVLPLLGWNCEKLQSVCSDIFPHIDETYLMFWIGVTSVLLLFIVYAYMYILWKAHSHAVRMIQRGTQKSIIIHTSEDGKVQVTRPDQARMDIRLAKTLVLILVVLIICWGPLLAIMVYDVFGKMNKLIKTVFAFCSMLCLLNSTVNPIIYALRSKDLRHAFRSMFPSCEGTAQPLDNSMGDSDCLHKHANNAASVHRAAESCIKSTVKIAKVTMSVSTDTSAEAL
# Method: The inhibition of forskolin-stimulated cAMP accumulation assays was carried out using PerkinElmer’s Lance Ultra cAMP kit following the manufacturer’s protocol. In brief, CHO cells stably expressing human CB1R (provided by the lab of Laura Bohn) were harvested by incubation with Versene (ThermoFisher Scientific, Waltham, MA) for 10 min, washed once with Hank’s Balanced Salt Solution, and resuspended in stimulation buffer at ~200 cells/μL density. The ligands at eight different concentrations (0.001-10,000 nM) in stimulation buffer (5 μL) containing forskolin (2 μM final concentration) were added to a 384-well plate followed by the cell suspension (5 μL; ~1000 cells/well). The plate was incubated for 30 min at room temperature. Eu-cAMP tracer (5 μL) and Ulight-anti-cAMP (5 μL) working solutions were then added to each well, and the plate was incubated at room temperature for an additional 60 min. Results were measured on a Perkin-Elmer EnVision plate reader. The EC50 values were determined by nonlinear regression analysis using Graphpad Prism 9 and are expressed as the mean of three experiments, each performed in triplicate.
# [4] = target: T1, CB1 (rCB1); experiment: Radioligand competition binding, [3H]-CP-55,940, rat brain membranes
# [5] = target: T2, hCB1; experiment: bioSensAll ebBRET signaling profiling, hCB1; assay type: cell-based; set-up: host or cells: HEK293SL cells, transient PEI transfection; conditions: for Gi1 hCB1 response: Gi1 biosensor; for Gi1 hCB1 / GoB hCB1: single replicate values, FigS6a; for EC50: read-out: EC50 [95% CI]; for Emax: normalized to CP-55,940
compound,measurement,setting,value
COC(=O)C(NC(=O)c1cc(C)n(-c2cccc(C(F)(F)F)c2)n1)c1cccs1 (stereo not shown) [‘60154],Emax,"[1]; HTLA, read-out: Tango ß-arrestin recruitment Emax",21%
same,Tango ß-arrestin recruitment pEC50,[1],5.5 [5.4 – 5.6]
same,EC50,[1]; read-out: Tango ß-arrestin recruitment EC50,3340 nM
same,"% 1H-CP-55,940 displacement (mean) from single point screen",[2],97.23%
same,EC50,[3],351 nM
same,Lance Ultra cAMP pEC50,[3],6.5 [7.0]
same,Emax,[3]; CHO,67%
same,"normalised cAMP response, concentration-response (Figure2f), replicate values",[3]; M] -5,47.6767 and 42.0056 and 42.3397
same,"normalised cAMP response, concentration-response (Figure2f), replicate values",[3]; M] -6,18.5649 and 64.1261 and 62.9313 and 54.4312
same,"normalised cAMP response, concentration-response (Figure2f), replicate values",[3]; M] -7,60.7575 and 85.7016 and 74.1727 and 91.7418
same,"normalised cAMP response, concentration-response (Figure2f), replicate values",[3]; M] -8,71.1204 and 91.8821 and 99.3075 and 104.869
same,"normalised cAMP response, concentration-response (Figure2f), replicate values",[3]; M] -9,80.377 and 105.423 and 95.8256 and 102.017
same,"normalised cAMP response, concentration-response (Figure2f), replicate values",[3]; M] -10,87.3077 and 96.5214 and 96.3615 and 92.9435
same,"normalised cAMP response, concentration-response (Figure2f), replicate values",[3]; M] -11,91.1852 and 100.567 and 97.003 and 102.336
same,"normalised cAMP response, concentration-response (Figure2f), replicate values",[3]; M] -12,91.9633 and 106.344 and 93.1819 and 97.7717
same,improvement in affinity (free energy),"[4]; CF3 replacing F, ‘51486 vs ‘60154",-1.7 kcal/mol
same,LLE (lipophilic ligand efficiency),[4]; LLE = pIC50 − clogP,3.5
same,binding free energy ΔG,[4]; from measured Ki,10.0 kcal/mol
same,LE (ligand efficiency),[4]; from rCB1 affinity,0.36
same,pKi [95% CI],[4]; rCB1,7.4 [7.2 – 7.5]
same,Ki,"[4]; read-out: Ki [95% CI], rCB1, [3H]-CP-55,940",44 nM and 44.3 nM
same,fold improvement in CB1R affinity,[4]; vs parent hit or analog without the change,17 fold
same,Gi1 hCB1 response,[5]; Log [Compound] (M) -4.22186,135.687
same,Gi1 hCB1 response,[5]; Log [Compound] (M) -4.63927,128.615
same,Gi1 hCB1 response,[5]; Log [Compound] (M) -5.05788,93.8563
same,Gi1 hCB1 response,[5]; Log [Compound] (M) -5.47381,94.0353
same,Gi1 hCB1 response,[5]; Log [Compound] (M) -5.89285,102.272
same,Gi1 hCB1 response,[5]; Log [Compound] (M) -6.31878,90.7452
same,Gi1 hCB1 response,[5]; Log [Compound] (M) -6.72585,85.0156
same,Gi1 hCB1 response,[5]; Log [Compound] (M) -7.14267,90.8795
same,Gi1 hCB1 response,[5]; Log [Compound] (M) -7.55284,57.4417
same,Gi1 hCB1 response,[5]; Log [Compound] (M) -8,57.3074
same,Gi1 hCB1 response,[5]; Log [Compound] (M) -8.22186,41.0808
same,Gi1 hCB1 response,[5]; Log [Compound] (M) -8.39794,29.6663
same,Gi1 hCB1 response,[5]; Log [Compound] (M) -8.68787,9.254
same,Gi1 hCB1 response,[5]; Log [Compound] (M) -9.15521,-1.31
same,Gi1 hCB1 response,[5]; Log [Compound] (M) -9.61989,-12.1646
same,Gi1 hCB1 response,[5]; Log [Compound] (M) -10.0969,3.838
same,Gi1 hCB1 response,[5]; Log [Compound] (M) -10.5529,8.852
same,Gi1 hCB1 response,[5]; Log [Compound] (M) -11.0177,-14.1566
same,Gi1 hCB1 response,[5]; Log [Compound] (M) -11.4949,-8.897
same,Gi1 hCB1 response,[5]; Log [Compound] (M) -11.9208,6.613
same,Gi1 hCB1 response,[5]; Log [Compound] (M) -12.3979,-8.651
same,Gi1 hCB1 response,[5]; Log [Compound] (M) -12.8861,-7.89
same,Gi1 hCB1 response,"[5]; Log [Compound] (M) -13, individual replicate values",-1.847 and -6.9945
same,Gi1 hCB1,[5]; Log [Compound] (M) -4.22186,97.0901
same,GoB hCB1,[5]; Log [Compound] (M) -4.22186,92.7297
same,Gi1 hCB1,[5]; Log [Compound] (M) -4.63927,95.1785
same,GoB hCB1,[5]; Log [Compound] (M) -4.63927,96.2724
same,Gi1 hCB1,[5]; Log [Compound] (M) -5.05788,93.4672
same,GoB hCB1,[5]; Log [Compound] (M) -5.05788,98.1786
same,Gi1 hCB1,[5]; Log [Compound] (M) -5.47381,90.2143
same,GoB hCB1,[5]; Log [Compound] (M) -5.47381,107.08
same,Gi1 hCB1,[5]; Log [Compound] (M) -5.89285,87.9019
same,GoB hCB1,[5]; Log [Compound] (M) -5.89285,95.1574
same,Gi1 hCB1,[5]; Log [Compound] (M) -6.31878,75.1986
same,GoB hCB1,[5]; Log [Compound] (M) -6.31878,99.5993
same,Gi1 hCB1,[5]; Log [Compound] (M) -6.72585,72.9632
same,GoB hCB1,[5]; Log [Compound] (M) -6.72585,94.8877
same,Gi1 hCB1,[5]; Log [Compound] (M) -7.14267,69.0474
same,GoB hCB1,[5]; Log [Compound] (M) -7.14267,78.6487
same,Gi1 hCB1,[5]; Log [Compound] (M) -7.55284,54.4325
same,GoB hCB1,[5]; Log [Compound] (M) -7.55284,63.3449
same,Gi1 hCB1,[5]; Log [Compound] (M) -8,27.0835
same,GoB hCB1,[5]; Log [Compound] (M) -8,30.6512
same,Gi1 hCB1,[5]; Log [Compound] (M) -8.22186,23.9076
same,GoB hCB1,[5]; Log [Compound] (M) -8.22186,16.822
same,Gi1 hCB1,[5]; Log [Compound] (M) -8.39794,14.1027
same,GoB hCB1,[5]; Log [Compound] (M) -8.39794,15.743
same,Gi1 hCB1,[5]; Log [Compound] (M) -8.68787,6.5794
same,GoB hCB1,[5]; Log [Compound] (M) -8.68787,4.5753
same,Gi1 hCB1,[5]; Log [Compound] (M) -9.15521,2.17
same,GoB hCB1,[5]; Log [Compound] (M) -9.15521,-0.7658
same,Gi1 hCB1,[5]; Log [Compound] (M) -9.61989,0.08902
same,GoB hCB1,[5]; Log [Compound] (M) -9.61989,0.7808
same,Gi1 hCB1,[5]; Log [Compound] (M) -10.0969,-0.8206
same,GoB hCB1,[5]; Log [Compound] (M) -10.0969,-0.1723
same,Gi1 hCB1,[5]; Log [Compound] (M) -10.5529,0.8599
same,GoB hCB1,[5]; Log [Compound] (M) -10.5529,-2.762
same,Gi1 hCB1,[5]; Log [Compound] (M) -11.0177,1.677
same,GoB hCB1,[5]; Log [Compound] (M) -11.0177,-1.018
same,Gi1 hCB1,[5]; Log [Compound] (M) -11.4949,1.6461
same,GoB hCB1,[5]; Log [Compound] (M) -11.4949,-1.935
same,Gi1 hCB1,[5]; Log [Compound] (M) -11.9208,-0.003475
same,GoB hCB1,[5]; Log [Compound] (M) -11.9208,-0.2982
same,Gi1 hCB1,[5]; Log [Compound] (M) -12.3979,0.3049
same,GoB hCB1,[5]; Log [Compound] (M) -12.3979,0.619
same,Gi1 hCB1,[5]; Log [Compound] (M) -12.8861,1.261
same,GoB hCB1,[5]; Log [Compound] (M) -12.8861,-2.69
same,Gi1 hCB1,[5]; Log [Compound] (M) -13,0.459 and 0.9986
same,GoB hCB1,[5]; Log [Compound] (M) -13,-0.2622 and -1.953
same,pEC50 [95% CI],[5]; hCB1 Gi1,7.6 [7.5 – 7.7]
same,pEC50 [95% CI],[5]; hCB1 GoB,7.7 [7.7 – 7.8]
same,pEC50 [95% CI],[5]; hCB1 Gz,7.8 [7.4 – 8.1]
same,EC50,[5]; hCB1 Gi1,2.5 nM
same,EC50,[5]; hCB1 GoB,18.4 nM
same,EC50,[5]; hCB1 Gz,17.5 nM
same,Emax,"[5]; read-out: Emax [95% CI], hCB1 Gi1",92%
same,Emax,"[5]; read-out: Emax [95% CI], hCB1 GoB",100%
same,Emax,"[5]; read-out: Emax [95% CI], hCB1 Gz",121%
